Assay results reported in patent US7855292B2, “Sulfonamide compounds” (Janssen Pharmaceutica NV, priority 2004, dated 2010).

Biological target: T1, CCK2 receptor (Homo sapiens, UniProt P32239)
T1 construct: analyzed for ZFP expression as well as CCK2R induction upon addition of doxycycline to the culture medium; endogenous in cells
T1 sequence (P32239 1-447): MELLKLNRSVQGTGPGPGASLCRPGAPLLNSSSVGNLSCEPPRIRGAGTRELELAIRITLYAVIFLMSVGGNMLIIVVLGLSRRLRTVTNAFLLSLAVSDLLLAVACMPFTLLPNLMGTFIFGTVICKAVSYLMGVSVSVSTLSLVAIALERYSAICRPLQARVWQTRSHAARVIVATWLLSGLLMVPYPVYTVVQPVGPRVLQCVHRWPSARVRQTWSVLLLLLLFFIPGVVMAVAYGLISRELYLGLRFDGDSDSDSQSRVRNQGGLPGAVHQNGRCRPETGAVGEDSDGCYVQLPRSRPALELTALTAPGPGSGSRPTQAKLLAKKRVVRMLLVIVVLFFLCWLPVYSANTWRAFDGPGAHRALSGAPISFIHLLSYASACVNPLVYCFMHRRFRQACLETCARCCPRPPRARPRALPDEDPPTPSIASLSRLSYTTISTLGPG
Assay: CCK2 binding assay ([125I]-BH-CCK-8S displacement, HEKZFP membranes)
Settings: membranes of doxycycline-induced HEKZFP cells; 20 pM [125I]-BH-CCK-8S; 60 min at 21±3° C.; read-out: CCK2 pKi (converted)

Ki: 31.6 nM
SMILES: O=C(N[C@@H](Cc1ccc(Cl)c(Cl)c1)C(=O)O)c1ccc(I)cc1NS(=O)(=O)c1cccc2nsnc12 [Example 2, (S)-2-[2-(Benzo[1,2,5]thiadiazole-4-sulfonylamino)-4-iodo-benzoylamino]-3-(3,4-dichloro-phenyl)-propionic acid]
